Test results as given in patent US20220288051A1, “METHODS FOR TREATING CANCER USING SERIAL ADMINISTRATION OF E3 UBIQUITIN LIGASE DEGRADERS” (Dana-Farber Cancer Institute, Inc., priority 2019, published 2022).
Entries after “also recorded” stand apart in the source; their conditions may differ.

Legend:
[1] = system: MM.1S-dCas9-VP64 cells; test: Genome-scale CRISPR gene activation resistance screens; format: cell-based, human; details: Calabrese library; successive rounds of treatment
Protocol: We also performed genome-scale CRISPR-based gene-activation screens, which followed the “long-term” configuration of the gene editing studies.
For the genome-scale screen with the Calabrese sgRNA library, tumor cells were transduced in batches of 3×10^7 cells per sublibrary for triplicates. Cells were incubated (18 h) in cell medium containing polybrene (4 μg/mL; Santa Cruz Biotechnology), 10 mM HEPES (pH 7.4) (Sigma-Aldrich) and viral prep (30 mL) diluted 1:1. Transduced cells were cultured at an initial density of 1×10^6 cells/mL and were treated with puromycin (1 μg/mL) for up to 7 days additional two days from transduction. After stable transduction, pooled MM.1S cells were plated at 30×10^6 cells per flask (T175, 100 mL) to enable coverage of 500× and were sub-cultured at three- to four-day intervals to prevent confluence. […]
Cells were immediately harvested (30×10^6) and sgRNA distribution assessed, by next generation sequencing.
iv. […] DNA concentration was quantified by UV-spectroscopy (NanoDrop 8000; ThermoFisher Scientific). […] Multiplexed samples were then sequenced at the Molecular Biology Core Facility (Dana-Farber Cancer Institute) and/or The Genomics Platform (Broad Institute) using an Illumina NextSeq 500 (Illumina, San Diego, Calif.), allowing […] individual reads per multiplexed sample.

[2] = molecular target: MDR1 transporter (Homo sapiens, UniProt P08183); details: stated as fact; cited from earlier work
Chain of MDR1 transporter (P08183 whole entry): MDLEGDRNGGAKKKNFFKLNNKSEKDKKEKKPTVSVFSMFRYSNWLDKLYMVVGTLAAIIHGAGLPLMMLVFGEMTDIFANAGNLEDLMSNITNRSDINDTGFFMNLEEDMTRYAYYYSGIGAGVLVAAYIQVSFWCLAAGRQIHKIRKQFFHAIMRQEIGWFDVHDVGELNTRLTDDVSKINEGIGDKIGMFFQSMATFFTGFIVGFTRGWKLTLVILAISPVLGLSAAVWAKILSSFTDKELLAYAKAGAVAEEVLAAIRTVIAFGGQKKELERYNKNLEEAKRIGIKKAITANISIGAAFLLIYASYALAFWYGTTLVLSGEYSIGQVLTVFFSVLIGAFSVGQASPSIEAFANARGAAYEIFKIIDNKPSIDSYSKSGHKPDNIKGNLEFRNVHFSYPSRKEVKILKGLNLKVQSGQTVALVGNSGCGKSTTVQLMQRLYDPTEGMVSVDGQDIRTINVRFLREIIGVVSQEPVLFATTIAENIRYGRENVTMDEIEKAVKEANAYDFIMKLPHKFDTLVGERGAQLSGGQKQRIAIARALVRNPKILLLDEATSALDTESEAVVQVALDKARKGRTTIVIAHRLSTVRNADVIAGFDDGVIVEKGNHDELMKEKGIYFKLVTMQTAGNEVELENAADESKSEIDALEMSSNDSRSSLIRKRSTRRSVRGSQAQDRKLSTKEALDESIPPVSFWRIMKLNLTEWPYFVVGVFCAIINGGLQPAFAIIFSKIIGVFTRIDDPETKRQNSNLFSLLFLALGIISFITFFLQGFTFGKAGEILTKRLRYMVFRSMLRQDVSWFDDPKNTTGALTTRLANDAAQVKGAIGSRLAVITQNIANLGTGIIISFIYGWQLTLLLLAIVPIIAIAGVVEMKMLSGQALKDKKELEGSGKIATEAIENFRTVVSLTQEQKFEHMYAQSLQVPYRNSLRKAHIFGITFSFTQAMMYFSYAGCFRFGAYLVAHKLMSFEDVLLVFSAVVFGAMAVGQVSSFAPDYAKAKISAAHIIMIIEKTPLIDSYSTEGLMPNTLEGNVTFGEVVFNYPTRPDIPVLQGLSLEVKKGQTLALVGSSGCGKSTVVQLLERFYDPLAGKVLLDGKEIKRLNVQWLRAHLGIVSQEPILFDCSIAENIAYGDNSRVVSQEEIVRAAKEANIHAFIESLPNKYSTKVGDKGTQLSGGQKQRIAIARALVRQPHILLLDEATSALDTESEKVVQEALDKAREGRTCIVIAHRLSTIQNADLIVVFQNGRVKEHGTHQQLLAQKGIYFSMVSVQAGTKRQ

[3] = system: pools of MM cells; test: Sequential exposure to CRBN- and VHL-based degraders, CTG; format: cell-based, human; details: compared to treatment-naïve cells
Excerpt: We addressed this question using pools of MM cells derived from several of our genome-scale CRISPR-based screens.

[4] = system: MM.1S-Cas9+ cells; test: Genome-scale CRISPR/Cas9 gene editing (LOF) resistance screens; format: cell-based, human; details: 25 nM for 48 hrs; Brunello library
[5] = system: MM.1S cells; test: CTG viability of CRISPR-edited MM.1S pools tolerant to bortezomib or JQ1; format: cell-based, human; details: vs treatment-naive cells with the same sgRNA library
Protocol: Cell viability and growth of human MM cell lines were assessed using CellTitre-Glo (CTG) assay (Promega, Madison, Wis.) per kit instructions, or CS-BLI as described (Delmore et al., 2011). Briefly, cells were seeded (5×10^3 cells/well) into 96- or 384-well opaque plates, in supplemented media (40 or 50 uL) and incubated for 24 h prior to addition of drug. For co-culture experiments, HS27A cells were pre-seeded (5×10^3 cells/well) into each well in media prior (24 h) to the addition of MM cells. At each time point (24 h, 48 h, and/or 72 h) CTG reagent (10% volume) was added to each well, and plates were read using a microplate reader (BioTek Synergy 2, BioTek, Winooski, Va.).
iii. […] Following treatments, all cells were serially cultured without drug and allowed to regrow for as long as required to enable reseeding (60×10^6 cells per flask, 100 mL) and retreatment with individual drugs while maintaining ˜1000× coverage throughout. Concomitant with retreatment, remaining cells were frozen (−80° C.; 20% FBS/DMSO) for later analysis or assessed for drug resistance/sensitivity using CTG assays. Between treatments, and in order to maintain the health of cultures, dead cells were periodically removed using Ficoll centrifugation (1,500 rpm for 10-20 min). For all CRISPR drug treatment experiments, aliquots of MM.1S-Cas9+ cells transduced with the GeCKO(Sanjana et al., 2014; Shalem et al., 2014) or Brunello (Doench et al., 2016) sgRNA libraries were frozen immediately prior to experimentation to determine the baseline distribution of sgRNAs in the cell population.

[6] = system: c-Myc; test: Immunoblotting of degronimid-treated MM.1S cells: c-Myc; format: cell-based, human; details: 0.01-1 μM, 4 h
Protocol: MM.1S cells were seeded in 6-well plates at 3×10^6 cells/well (˜24 h prior to addition of drug). […] Cell pellets were thawed on ice, lysed using RIPA buffer (ThermoFisher) with protease/phosphatase inhibitor cocktail (Cell Signal Technology, Danvers, Mass.) by incubating on ice 30 min. The lysates were clarified by spinning at 10,000 g for 10 min at 4° C. and the concentration of the lysate was determined using BCA protocol (ThermoFisher). Samples were prepared for Western blot using LDS sample buffer (NuPage, Invitrogen, Carlsbad, Calif., USA) with sample reducing agent (NuPage, Invitrogen) and heated to 95° C. for 5 min. Samples were loaded (20 ug/sample) into Tris-acetate or Bis-Tris gels (NuPage, Invitrogen) and run as per kit instructions using appropriate running buffers. Gels were transferred as described (Matthews et al., 2015) onto PVDF membrane using SDS-based transfer buffer (NuPage, Invitrogen). Membranes were blocked (5% skim milk; or 5% bovine serum albumin in TBS-T) for at least 30 min then probed with primary antibodies overnight (4° C.). […] Each protein of interest (BRD2, BRD3, BRD4, c-myc and CDK9) was assessed in a separate gel and corresponding membrane (which was simultaneously incubated with antibodies for both the target protein of interest and GAPDH, to provide a loading control within the same blot). […]

SMILES	sgRNA enrichment, gene activation screen [1]	MDR1 substrate [2]	response of pools previously exposed to ARV771 and then MZ1 [3]	shift of dose response curve in pools previously exposed to CRBN-based degraders [3]	sgRNA enrichment, short-term screen [4]	dBET6 sensitivity of pools tolerant to bortezomib or JQ1 [5]	c-Myc protein levels [6]
Cc1ncsc1-c1ccc([C@H](C)NC(=O)[C@@H]2C[C@@H](O)CN2C(=O)[C@@H](NC(=O)COCCCOCCNC(=O)C[C@@H]2N=C(c3ccc(Cl)cc3)c3c(sc(C)c3C)-n3c(C)nnc32)C(C)(C)C)cc1 [ARV-771]	ABCB1, the gene for the MDR1 transporter, was commonly identified as the only gene with sgRNA enrichment	MDR1 substrates	significantly decreased responsiveness	limited, if any, shift			
Cc1sc2c(c1C)C(c1ccc(Cl)cc1)=N[C@@H](CC(=O)NCCCCCCCCNC(=O)COc1cccc3c1C(=O)N(C1CCC(=O)NC1=O)C3=O)c1nnc(C)n1-2 (some centres unmarked) [dBET6]	ABCB1, the gene for the MDR1 transporter, was commonly identified as the only gene with sgRNA enrichment	MDR1 substrates			CRBN is the top gene in terms of sgRNA enrichment	do not exhibit resistance to dBET6; also recorded: equal to or greater than treatment-naive cells	rapid and robust depletion
CC(C)(C)c1cnc(CSc2cnc(NC(=O)C3CCN(CC(=O)NCCOCCOCCOCCNc4cccc5c4C(=O)N(C4CCC(=O)NC4=O)C5=O)CC3)s2)o1 (centres unmarked) [Thal-SNS-032]				major shifts to the right	CRBN is the top gene in terms of sgRNA enrichment		
